Drawing on ChEMBL document CHEMBL5131426, “Novel hydrazone derivatives of N-amino-11-azaartemisinin with high order of antimalarial activity against multidrug-resistant Plasmodium yoelii nigeriensis in Swiss mice via intramuscular route” (Bioorg Med Chem Lett, 2022), this text covers inhibition in vivo, Activity and survival for 14 compounds.

Data set [1] relates to Plasmodium yoelii nigeriensis. The data set can be described thus: Antimalarial activity against multidrug-resistant Plasmodium yoelii nigeriensis infected in Swiss mouse assessed as inhibition of parasitemia at 24 mg/kg, po for 4 days measured on day 4 relative to control. It counts as functional. Conditions: 96 h, time 4 day.
The subject of data set [2] is Plasmodium yoelii nigeriensis. The data set can be described thus: Antimalarial activity against multidrug-resistant Plasmodium yoelii nigeriensis infected in Swiss mouse assessed as inhibition of parasitemia at 12 mg/kg, IM for 4 days measured on day 4 relative to control. Conditions: 96 h, time 4 day. It counts as functional.
The nature of data set [3]: Toxicity in Swiss mouse infected with multidrug-resistant Plasmodium yoelii nigeriensis assessed as animal dead at 12 mg/kg, IM for 4 days measured on day 28. Conditions: in vivo, 96 h, time 4 day. It counts as organism-based.
The nature of data set [4]: Toxicity in Swiss mouse infected with multidrug-resistant Plasmodium yoelii nigeriensis assessed as animal survival at 12 mg/kg, IM for 4 days measured on day 28. Conditions: in vivo, time 4 day; for survival at 96 h: Swiss, read-out: Activity. It counts as organism-based.
Data set [5] can be described thus: Toxicity in Swiss mouse infected with multidrug-resistant Plasmodium yoelii nigeriensis assessed as animal survival at 24 mg/kg, IM for 4 days measured on day 28. It counts as organism-based. To be noted: in vivo, time 4 day, read-out: Activity.
A short description of data set [6]: Toxicity in Swiss mouse infected with multidrug-resistant Plasmodium yoelii nigeriensis assessed as animal survival at 24 mg/kg, po for 4 days measured on day 28. It counts as organism-based. Conditions: in vivo, time 4 day; for Activity: po, 24 mg/kg, 96 h.
The test system of data set [7] is Plasmodium yoelii nigeriensis. The experiment in a line: Antimalarial activity against multidrug-resistant Plasmodium yoelii nigeriensis infected in Swiss mouse assessed as inhibition of parasitemia at 12 mg/kg, po for 4 days measured on day 4 relative to control. It counts as functional. To be noted: 96 h, time 4 day.
Data set [8] is described as follows: Toxicity in Swiss mouse infected with multidrug-resistant Plasmodium yoelii nigeriensis assessed as animal dead at 12 mg/kg, po for 4 days measured on day 28. It counts as organism-based. To be noted: in vivo, 96 h, time 4 day.
Data set [9] has as its system Plasmodium yoelii nigeriensis. The data set can be described thus: Antimalarial activity against multidrug-resistant Plasmodium yoelii nigeriensis infected in Swiss mouse assessed as inhibition of parasitemia at 6 mg/kg, po for 4 days measured on day 4 relative to control. Format: functional. To be noted: 96 h, time 4 day.
Data set [10] has as its system Plasmodium yoelii nigeriensis. The data set can be described thus: Antimalarial activity against multidrug-resistant Plasmodium yoelii nigeriensis infected in Swiss mouse assessed as inhibition of parasitemia at 3 mg/kg, IM for 4 days measured on day 4 relative to control. Format: functional. To be noted: 96 h, time 4 day.
Data set [11] is described as follows: Toxicity in Swiss mouse infected with multidrug-resistant Plasmodium yoelii nigeriensis assessed as animal survival at 6 mg/kg, IM for 4 days measured on day 28. It counts as organism-based. To be noted: in vivo, time 4 day.
Data set [12] can be described thus: Toxicity in Swiss mouse infected with multidrug-resistant Plasmodium yoelii nigeriensis assessed as animal survival at 12 mg/kg, po for 4 days measured on day 28. It counts as organism-based. Conditions: in vivo, 96 h, time 4 day.
A short description of data set [13]: Toxicity in Swiss mouse infected with multidrug-resistant Plasmodium yoelii nigeriensis assessed as animal dead at 6 mg/kg, po for 4 days measured on day 28. It counts as organism-based. To be noted: in vivo, 96 h, time 4 day.
Data set [14] in a line: Toxicity in Swiss mouse infected with multidrug-resistant Plasmodium yoelii nigeriensis assessed as animal dead at 3 mg/kg, IM for 4 days measured on day 28. Conditions: in vivo, 96 h, time 4 day. It counts as organism-based.
Data set [15] concerns Plasmodium yoelii nigeriensis. The experiment in a line: Antimalarial activity against multidrug-resistant Plasmodium yoelii nigeriensis infected in Swiss mouse assessed as inhibition of parasitemia at 6 mg/kg, IM for 4 days measured on day 4 relative to control. Format: functional. To be noted: 96 h, time 4 day.
A short description of data set [16]: Toxicity in Swiss mouse infected with multidrug-resistant Plasmodium yoelii nigeriensis assessed as animal dead at 24 mg/kg, po for 4 days measured on day 28. Format: organism-based. To be noted: in vivo, 96 h, time 4 day.
Data set [17] has as its system Plasmodium yoelii nigeriensis. The data set can be described thus: Antimalarial activity against multidrug-resistant Plasmodium yoelii nigeriensis infected in Swiss mouse assessed as inhibition of parasitemia at 48 mg/kg, po for 4 days measured on day 4 relative to control. Format: functional. Conditions: 96 h, time 4 day.
Data set [18] concerns Plasmodium yoelii nigeriensis. The data set can be described thus: Antimalarial activity against multidrug-resistant Plasmodium yoelii nigeriensis infected in Swiss mouse assessed as inhibition of parasitemia at 48 mg/kg, IM for 4 days measured on day 4 relative to control. It counts as functional. Conditions: 96 h, time 4 day.
In data set [19] the test system is Plasmodium yoelii nigeriensis. The data set can be described thus: Antimalarial activity against multidrug-resistant Plasmodium yoelii nigeriensis infected in Swiss mouse assessed as inhibition of parasitemia at 24 mg/kg, IM for 4 days measured on day 4 relative to control. It counts as functional. To be noted: 96 h, time 4 day.
Data set [20] in a line: Toxicity in Swiss mouse infected with multidrug-resistant Plasmodium yoelii nigeriensis assessed as animal dead at 48 mg/kg, po for 4 days measured on day 28. Format: organism-based. Conditions: in vivo, 96 h, time 4 day.
Data set [21] is described as follows: Toxicity in Swiss mouse infected with multidrug-resistant Plasmodium yoelii nigeriensis assessed as animal survival at 48 mg/kg, IM for 4 days measured on day 28. Format: organism-based. To be noted: in vivo, 96 h, time 4 day.

Broadly, the inhibition in vivo is the percentage by which the read-out fell short of the control. On to `C[C@@H]1CC[C@H]2[C@@H](C)C(=O)N(N)[C@@H]3O[C@@]4(C)CC[C@@H]1[C@@]23OO4`, for which, in [1], the inhibition in vivo at 24 mg/kg was 100%. The inhibition in vivo at 12 mg/kg in data set [2] amounted to 100%. Also, the Activity result in data set [3] is “Toxic”.
Turning to `C[C@@H]1CC[C@H]2[C@@H](C)C(=O)N(/N=C/c3ccccc3O)[C@@H]3O[C@@]4(C)CC[C@@H]1[C@@]23OO4`, in data set [1], the inhibition in vivo at 24 mg/kg turned out to be 100%. In [2], the inhibition in vivo at 12 mg/kg was 100%. Moreover, the survival at 96 h in data set [4] came out at 40%.
For the compound `C[C@@H]1CC[C@H]2[C@@H](C)C(=O)N(N=C3C4CC5CC(C4)CC3C5)[C@@H]3O[C@@]4(C)CC[C@@H]1[C@@]23OO4`, the inhibition in vivo at 24 mg/kg in data set [1] was found to be 100%. Besides, in data set [2], the inhibition in vivo at 12 mg/kg came to 100%. Besides, the survival at 96 h in data set [4] is 20%.
Take `C[C@@H]1CC[C@H]2[C@@H](C)C(=O)N(/N=C/c3ccc[nH]3)[C@@H]3O[C@@]4(C)CC[C@@H]1[C@@]23OO4`: in [1], the inhibition in vivo at 24 mg/kg is 100%. Moreover, in data set [2], the inhibition in vivo at 12 mg/kg amounted to 100%. In addition, in data set [5], the survival at 96 h worked out at 40%.
In the case of `CC(C)=NN1C(=O)[C@H](C)[C@@H]2CC[C@@H](C)[C@@H]3CC[C@@]4(C)OO[C@]32[C@H]1O4`, the inhibition in vivo at 24 mg/kg in [1] was found to be 100%. In addition, the inhibition in vivo at 12 mg/kg in [2] worked out at 100%.
Consider `C[C@@H]1CC[C@H]2[C@@H](C)C(=O)N(/N=C/c3ccc(Br)cc3)[C@@H]3O[C@@]4(C)CC[C@@H]1[C@@]23OO4`, for which the inhibition in vivo at 24 mg/kg in [1] came out at 100%. Further, the inhibition in vivo at 12 mg/kg in data set [2] is 100%. The survival at 96 h in data set [4] was determined as 60%.
`C[C@@H]1CC[C@H]2[C@@H](C)C(=O)N(N=C3CCCCC3)[C@@H]3O[C@@]4(C)CC[C@@H]1[C@@]23OO4`: the inhibition in vivo at 24 mg/kg in data set [1] came to 100%. Also, in data set [2], the inhibition in vivo at 12 mg/kg is 100%. Moreover, the survival at 96 h in data set [4] amounted to 40%.
For `C[C@@H]1CC[C@H]2[C@@H](C)C(=O)N(/N=C/c3ccco3)[C@@H]3O[C@@]4(C)CC[C@@H]1[C@@]23OO4`, in data set [1], the inhibition in vivo at 24 mg/kg amounted to 100%. For the same compound, the inhibition in vivo at 12 mg/kg in data set [2] is 100%. For the same compound, the survival at 96 h in data set [6] (Swiss, read-out: Activity) is 80%; in data set [4], 80%.
With `COc1ccc(/C=N/N2C(=O)[C@H](C)[C@@H]3CC[C@@H](C)[C@@H]4CC[C@@]5(C)OO[C@]43[C@H]2O5)cc1`, in data set [1], the inhibition in vivo at 24 mg/kg came out at 100%. The inhibition in vivo at 12 mg/kg in data set [7] and in data set [2] was 100% each time. Also, the Activity result in data set [6] is reported as “Non-Toxic”; in data set [8], “Toxic”. The survival at 96 h in [4] amounted to 60%.
As for `C[C@@H]1CC[C@H]2[C@@H](C)C(=O)N(/N=C/c3cccs3)[C@@H]3O[C@@]4(C)CC[C@@H]1[C@@]23OO4`, the inhibition in vivo at 24 mg/kg in data set [1] was determined as 100%. Further, the inhibition in vivo at 12 mg/kg in data set [7] and in data set [2] was 100% in each case.
`C[C@@H]1CC[C@H]2[C@@H](C)C(=O)N(N=C3c4ccccc4-c4ccccc43)[C@@H]3O[C@@]4(C)CC[C@@H]1[C@@]23OO4`: in data set [1], the inhibition in vivo at 24 mg/kg came to 100%. The inhibition in vivo at 12 mg/kg in [7] and in [2] was 100% throughout. Further, the inhibition in vivo at 6 mg/kg in [9] stood at 98%. The inhibition in vivo at 3 mg/kg in data set [10] stood at 38%. The Activity entry in [11] (im, 6 mg/kg, 96 h) is “Non-Toxic”; in [6] it was “Non-Toxic”; in [4] (im, 12 mg/kg, 96 h), “Non-Toxic”; in data set [12], “Non-Toxic”; in [13] it was “Toxic”; in data set [14], “Toxic”.
In the case of `C[C@@H]1CC[C@H]2[C@@H](C)C(=O)N(/N=C/c3cccc([N+](=O)[O-])c3)[C@@H]3O[C@@]4(C)CC[C@@H]1[C@@]23OO4`, the inhibition in vivo at 24 mg/kg in data set [1] stood at 100%. Further, the inhibition in vivo at 12 mg/kg in [2] came out at 100%. Also, in data set [3], the Activity entry is given as “Toxic”.
`C[C@@H]1CC[C@H]2[C@@H](C)C(=O)N(N=C3CCCC3)[C@@H]3O[C@@]4(C)CC[C@@H]1[C@@]23OO4`: the inhibition in vivo at 24 mg/kg in data set [1] was 100%. The inhibition in vivo at 12 mg/kg in data set [2] is 100%. In addition, the inhibition in vivo at 6 mg/kg in [15] stood at 100%. In addition, the survival at 96 h in data set [11] (Swiss, read-out: Activity) stood at 80%. Besides, the results for the Activity result in data set [16] and in data set [6] were “Toxic” and “Non-Toxic”, respectively.
As to `C[C@@H]1CC[C@H]2[C@@H](C)C(=O)O[C@@H]3O[C@@]4(C)CC[C@@H]1[C@]32OO4` [ARTEMISININ], the inhibition in vivo at 48 mg/kg in data set [17] and in data set [18] was 100% each time. For the same compound, the inhibition in vivo at 24 mg/kg in data set [19] was determined as 100%. Also, the Activity result is “Toxic” in [20] and “Non-Toxic” in data set [21].
